The test system of assay [1] is human HT-29 colon tumor cell line. As to the kind of experiment: Tumor cell growth inhibition, HT-29. Particulars: HT-29, 72 h, read-out: Growth inhibition IC50. The class given is cell-based.
Assay [2] deals with recombinant human PDE5 enzyme (Homo sapiens, UniProt O76074). As to the kind of experiment: Phosphodiesterase assay. It is filed as biochemical.

By IC50 is commonly meant the concentration that inhibits the measured activity by half. Turning to `COC(=O)[C@@H]1Cc2c([nH]c3ccccc23)[C@@H](c2ccccc2Br)N1C(=O)CCl` [Compound 6d, Methyl (1R,3S)-1-(2-bromophenyl)-2-(2-chloroacetyl)-2,3,4,9-tetrahydro-1H-β-carboline-3-carboxylate], the concentration for half-maximal inhibition (IC50) in assay [1] was found to be 1600 nM. Moreover, the “PDE5 inhibitory activity (in words)” value in assay [2] is “did not show PDE5 inhibitory activity”.

For the origin of these results see PMC4980838 (European journal of medicinal chemistry, 2010).
